Experimental data: US8952157B2, “Apoptosis-inducing agents for the treatment of cancer and immune and autoimmune diseases” (AbbVie Inc., priority 2008, dated 2015)

Molecular target: GST-Bcl-2 (Homo sapiens (Human), UniProt P10415)
Assay: Time Resolved-Fluorescence Resonance Energy Transfer (TR-FRET) Bcl-2 binding assay
Conditions: not given
How it was run: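 Ki values derived from TR-FRET displacement of F-Bak peptide from GST-Bcl-2, detected with Tb-labelled anti-GST antibody (ex 340, em 520/495 nm). Compound dilution series started at 50 μM (2× starting concentration); room-temperature incubation 3 hours.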

GST-Bcl-2, sequence (P10415 whole entry): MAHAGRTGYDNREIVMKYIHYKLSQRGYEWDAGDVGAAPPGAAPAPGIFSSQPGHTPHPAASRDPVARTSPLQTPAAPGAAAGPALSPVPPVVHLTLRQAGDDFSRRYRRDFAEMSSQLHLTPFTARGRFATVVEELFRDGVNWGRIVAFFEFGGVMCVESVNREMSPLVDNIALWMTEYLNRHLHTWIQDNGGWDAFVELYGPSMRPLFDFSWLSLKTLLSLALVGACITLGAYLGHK

First: CC1(C)CCC(CN2CCN(c3ccc(C(=O)NS(=O)(=O)c4ccc(N[C@H]5CC[C@H](N(C6CC6)C6CC6)CC5)c([N+](=O)[O-])c4)c(Oc4cc5cc[nH]c5cc4F)c3)CC2)=C(c2ccc(Cl)cc2)C1 [Example 334, Trans-4-(4-{[2-(4-chlorophenyl)-4,4-dimethylcyclohex-1-en-1-yl]methyl}piperazin-1-yl)-N-[(4-{[4-(dicyclopropylamino)cyclohexyl]amino}-3-nitrophenyl)sulfonyl]-2-[(6-fluoro-1H-indol-5-yl)oxy]benzamide]
Second: CC1(C)CCC(CN2CCN(c3ccc(C(=O)NS(=O)(=O)c4ccc(N[C@H]5CC[C@H](NC6CCOCC6)CC5)c([N+](=O)[O-])c4)c(Oc4cc5cc[nH]c5cc4F)c3)CC2)=C(c2ccc(Cl)cc2)C1 [Example 335, Trans-4-(4-{[2-(4-chlorophenyl)-4,4-dimethylcyclohex-1-en-1-yl]methyl}piperazin-1-yl)-2-[(6-fluoro-1H-indol-5-yl)oxy]-N-[(3-nitro-4-{[4-(tetrahydro-2H-pyran-4-ylamino)cyclohexyl]amino}phenyl)sulfonyl]benzamide]
The Ki of the first is higher: 0.197 nM for the first, less than 0.01 nM for the second. The second binds more tightly here.

CC1(C)CCC(CN2CCN(c3ccc(C(=O)NS(=O)(=O)c4ccc(N[C@H]5CC[C@H](N6CCN(C7CCOCC7)CC6)CC5)c([N+](=O)[O-])c4)c(Oc4cc5cc[nH]c5cc4F)c3)CC2)=C(c2ccc(Cl)cc2)C1 [Example 336, Trans-4-(4-{[2-(4-chlorophenyl)-4,4-dimethylcyclohex-1-en-1-yl]methyl}piperazin-1-yl)-2-[(6-fluoro-1H-indol-5-yl)oxy]-N-[(3-nitro-4-{[4-(4-tetrahydro-2H-pyran-4-ylpiperazin-1-yl)cyclohexyl]amino}phenyl)sulfonyl]benzamide] and CC1(C)CCC(CN2CCN(c3ccc(C(=O)NS(=O)(=O)c4ccc(NC[C@H]5CC[C@H](O)CC5)c([N+](=O)[O-])c4)c(Oc4cc5cc[nH]c5cc4F)c3)CC2)=C(c2ccc(Cl)cc2)C1 [Example 338, Trans-4-(4-{[2-(4-chlorophenyl)-4,4-dimethylcyclohex-1-en-1-yl]methyl}piperazin-1-yl)-2-[(6-fluoro-1H-indol-5-yl)oxy]-N-[(4-{[(4-hydroxycyclohexyl)methyl]amino}-3-nitrophenyl)sulfonyl]benzamide] cannot be ordered by Ki: less than 0.01 nM for the first, less than 0.01 nM for the second.

Same assay, conditions: GST-Bcl-2 1 nM, F-Bak peptide probe 100 nM, Tb-anti-GST antibody 1 nM; Ki by Wang's equation

Compared with CC1(C)CCC(CN2CCN(c3ccc(C(=O)NS(=O)(=O)c4ccc(N[C@H]5CCCN(C6CCOCC6)C5)c([N+](=O)[O-])c4)c(Oc4cc5cc[nH]c5cc4F)c3)CC2)=C(c2ccc(Cl)cc2)C1 [Example 329, 4-(4-{[2-(4-chlorophenyl)-4,4-dimethylcyclohex-1-en-1-yl]methyl}piperazin-1-yl)-2-[(6-fluoro-1H-indol-5-yl)oxy]-N-[(3-nitro-4-{[(3S)-1-tetrahydro-2H-pyran-4-ylpiperidin-3-yl]amino}phenyl)sulfonyl]benzamide], CC1(C)CCC(CN2CCN(c3ccc(C(=O)NS(=O)(=O)c4ccc(NCC5CCOC5)c([N+](=O)[O-])c4)c(Oc4cc5cc[nH]c5cc4F)c3)CC2)=C(c2ccc(Cl)cc2)C1 (stereo not drawn) [Example 332, 4-(4-{[2-(4-chlorophenyl)-4,4-dimethylcyclohex-1-en-1-yl]methyl}piperazin-1-yl)-2-[(6-fluoro-1H-indol-5-yl)oxy]-N-({3-nitro-4-[(tetrahydrofuran-3-ylmethyl)amino]phenyl}sulfonyl)benzamide] is 3.2-fold lower in Ki: 0.108 nM for the first, 0.034 nM for the second.

Going from CC1(C)CCC(CN2CCN(c3ccc(C(=O)NS(=O)(=O)c4ccc(OCC5(F)CCOCC5)c([N+](=O)[O-])c4)c(Oc4cnc(N)c(Cl)c4)c3)CC2)=C(c2ccc(Cl)cc2)C1 [Example 330, 2-[(6-amino-5-chloropyridin-3-yl)oxy]-4-(4-{[2-(4-chlorophenyl)-4,4-dimethylcyclohex-1-en-1-yl]methyl}piperazin-1-yl)-N-({4-[(4-fluorotetrahydro-2H-pyran-4-yl)methoxy]-3-nitrophenyl}sulfonyl)benzamide] to CC1(C)CCC(CN2CCN(c3ccc(C(=O)NS(=O)(=O)c4ccc(OCC5(F)CCOCC5)c(S(=O)(=O)C(F)(F)F)c4)c(Oc4cnc(N)c(Cl)c4)c3)CC2)=C(c2ccc(Cl)cc2)C1 [Example 348, 2-[(6-amino-5-chloropyridin-3-yl)oxy]-4-(4-{[2-(4-chlorophenyl)-4,4-dimethylcyclohex-1-en-1-yl]methyl}piperazin-1-yl)-N-({4-[(4-fluorotetrahydro-2H-pyran-4-yl)methoxy]-3-[(trifluoromethyl)sulfonyl]phenyl}sulfonyl)benzamide], the Ki rises from less than 0.01 nM to 3.78 nM.

First: CC1(C)CCC(CN2CCN(c3ccc(C(=O)NS(=O)(=O)c4ccc(NN5CCS(=O)(=O)CC5)c([N+](=O)[O-])c4)c(Oc4cc5cc[nH]c5cc4F)c3)CC2)=C(c2ccc(Cl)cc2)C1 [Example 331, 4-(4-{[2-(4-chlorophenyl)-4,4-dimethylcyclohex-1-en-1-yl]methyl}piperazin-1-yl)-N-({4-[(1,1-dioxidothiomorpholin-4-yl)amino]-3-nitrophenyl}sulfonyl)-2-[(6-fluoro-1H-indol-5-yl)oxy]benzamide]
Second: CC1(C)CCC(CN2CCN(c3ccc(C(=O)NS(=O)(=O)c4ccc(NCC5(F)CCOCC5)c([N+](=O)[O-])c4)c(Oc4cc5cc[nH]c5cc4F)c3)CC2)=C(c2ccc(Cl)cc2)C1 [Example 337, 4-(4-{[2-(4-chlorophenyl)-4,4-dimethylcyclohex-1-en-1-yl]methyl}piperazin-1-yl)-2-[(6-fluoro-1H-indol-5-yl)oxy]-N-[(4-{[(4-fluorotetrahydro-2H-pyran-4-yl)methyl]amino}-3-nitrophenyl)sulfonyl]benzamide]
The Ki of the first is 4.9-fold higher: 0.238 nM for the first, 0.049 nM for the second. The second binds more tightly here.

Going from CN(C)CCCc1c[nH]c2cccc(Oc3cc(N4CCN(CC5=C(c6ccc(Cl)cc6)CC(C)(C)CC5)CC4)ccc3C(=O)NS(=O)(=O)c3ccc(NCC4CCOCC4)c([N+](=O)[O-])c3)c12 [Example 339, 4-(4-{[2-(4-chlorophenyl)-4,4-dimethylcyclohex-1-en-1-yl]methyl}piperazin-1-yl)-2-({3-[3-(dimethylamino)propyl]-1H-indol-4-yl}oxy)-N-({3-nitro-4-[(tetrahydro-2H-pyran-4-ylmethyl)amino]phenyl}sulfonyl)benzamide] to CN(C)CCCc1c[nH]c2cccc(Oc3cc(N4CCN(CC5=C(c6ccc(Cl)cc6)CC(C)(C)CC5)CC4)ccc3C(=O)NS(=O)(=O)c3ccc(NN4CCN(C)CC4)c([N+](=O)[O-])c3)c12 [Example 340, 4-(4-{[2-(4-chlorophenyl)-4,4-dimethylcyclohex-1-en-1-yl]methyl}piperazin-1-yl)-2-({3-[3-(dimethylamino)propyl]-1H-indol-4-yl}oxy)-N-({4-[(4-methylpiperazin-1-yl)amino]-3-nitrophenyl}sulfonyl)benzamide], the Ki rises from 0.057 nM to 0.385 nM (6.8-fold).

First: CC1(C)CCC(CN2CCN(c3ccc(C(=O)NS(=O)(=O)c4ccc(OCC5(F)CCN(C6CC6)CC5)c([N+](=O)[O-])c4)c(Oc4cc5cc[nH]c5cc4F)c3)CC2)=C(c2ccc(Cl)cc2)C1 [Example 341, 4-(4-{[2-(4-chlorophenyl)-4,4-dimethylcyclohex-1-en-1-yl]methyl}piperazin-1-yl)-N-({4-[(1-cyclopropyl-4-fluoropiperidin-4-yl)methoxy]-3-nitrophenyl}sulfonyl)-2-[(6-fluoro-1H-indol-5-yl)oxy]benzamide]
Second: CN1CCN(Nc2ccc(S(=O)(=O)NC(=O)c3ccc(N4CCN(CC5=C(c6ccc(Cl)cc6)CC(C)(C)CC5)CC4)cc3Oc3cnc(N)c(Cl)c3)cc2[N+](=O)[O-])CC1 [Example 343, 2-[(6-amino-5-chloropyridin-3-yl)oxy]-4-(4-{[2-(4-chlorophenyl)-4,4-dimethylcyclohex-1-en-1-yl]methyl}piperazin-1-yl)-N-({4-[(4-methylpiperazin-1-yl)amino]-3-nitrophenyl}sulfonyl)benzamide]
The Ki of the first is 1.9-fold higher: 0.017 nM for the first, 0.009 nM for the second.

First: COc1ccc(Cn2nnc3c(Oc4cc(N5CCN(CC6=C(c7ccc(Cl)cc7)CC(C)(C)CC6)CC5)ccc4C(=O)NS(=O)(=O)c4ccc(NCC5CCOCC5)c([N+](=O)[O-])c4)cccc32)cc1 [Example 342, 4-(4-{[2-(4-chlorophenyl)-4,4-dimethylcyclohex-1-en-1-yl]methyl}piperazin-1-yl)-2-{[1-(4-methoxybenzyl)-1H-1,2,3-benzotriazol-4-yl]oxy}-N-({3-nitro-4-[(tetrahydro-2H-pyran-4-ylmethyl)amino]phenyl}sulfonyl)benzamide]
Second: CC1(C)CCC(CN2CCN(c3ccc(C(=O)NS(=O)(=O)c4ccc(NCC5COCCO5)c([N+](=O)[O-])c4)c(Oc4cnc(N)c(Cl)c4)c3)CC2)=C(c2ccc(Cl)cc2)C1 (stereo not drawn) [Example 346, 2-[(6-amino-5-chloropyridin-3-yl)oxy]-4-(4-{[2-(4-chlorophenyl)-4,4-dimethylcyclohex-1-en-1-yl]methyl}piperazin-1-yl)-N-({4-[(1,4-dioxan-2-ylmethyl)amino]-3-nitrophenyl}sulfonyl)benzamide]
The Ki of the first is higher: 3.34 nM for the first, less than 0.01 nM for the second. The second binds more tightly here.

Compared with CC1(C)CCC(CN2CCN(c3ccc(C(=O)NS(=O)(=O)c4ccc(NCCCN5CCOCC5)c(S(=O)(=O)C(F)(F)F)c4)c(Oc4cnc(N)c(Cl)c4)c3)CC2)=C(c2ccc(Cl)cc2)C1 [Example 347, 2-[(6-amino-5-chloropyridin-3-yl)oxy]-4-(4-{[2-(4-chlorophenyl)-4,4-dimethylcyclohex-1-en-1-yl]methyl}piperazin-1-yl)-N-({4-[(3-morpholin-4-ylpropyl)amino]-3-[(trifluoromethyl)sulfonyl]phenyl}sulfonyl)benzamide], CC1(C)CCC(CN2CCN(c3ccc(C(=O)NS(=O)(=O)c4cnc(OCC5(F)CCOCC5)c(Cl)c4)c(Oc4cnc(N)c(Cl)c4)c3)CC2)=C(c2ccc(Cl)cc2)C1 [Example 349, 2-[(6-amino-5-chloropyridin-3-yl)oxy]-N-({5-chloro-6-[(4-fluorotetrahydro-2H-pyran-4-yl)methoxy]pyridin-3-yl}sulfonyl)-4-(4-{[2-(4-chlorophenyl)-4,4-dimethylcyclohex-1-en-1-yl]methyl}piperazin-1-yl)benzamide] is 20-fold lower in Ki: 0.377 nM for the first, 0.019 nM for the second.
